From patent US20260193179A9 (priority 2018, published 2026) come the findings set out here.

One test has as its target mMASP-2 (Mus musculus, UniProt Q91WP0). Nature of the test: Enzymatic assay for mMASP-2. It is filed as biochemical.
The next test deals with Lectin Pathway. In words: Lectin Pathway Activation Assay in Human Serum (mannan-coated ELISA, C3c detection). It is filed as biochemical. The following applies: 1% human serum. The protocol: Microtiter ELISA plate was coated with mannan from Saccharomyces cerevisiae (Sigma-Aldrich, M7504) for overnight at 4° C. in coating buffer [15 mM Na2CO3, 35 mM NaHCO3]. Plate was blocked with 1% bovine serum albumin (BSA) (Sigma-Aldrich, A3294) in Tris-buffered Saline (TBS) [10 mM Tris-HCl, 140 mM NaCl] for 2 hours at room temperature. […] 100 μL of this mixture were then added to the plate and plate was incubated at 37° C. for up to an hour with gentle shaking, 200 rpm. After that, plate was washed thrice in wash buffer [TBS containing 5 mM CaCl2) and 0.05% Tween-20] and 100 μL of rabbit anti human C3c (Dako, A0062) diluted 1:5000 in wash buffer were added and incubated at 37° C. for 30 minutes.

The subject of a further test is MASP-2 (CCP1-CCP2-SP). In words: Enzymatic Assay for MASP-2 (fluorogenic substrate). It counts as biochemical, human. Conditions: selectivity for MASP-2 inhibition versus thrombin.

Where a name gives a salt, the structure may show the parent alone.

Sequence of mMASP-2 (Q91WP0 20-685): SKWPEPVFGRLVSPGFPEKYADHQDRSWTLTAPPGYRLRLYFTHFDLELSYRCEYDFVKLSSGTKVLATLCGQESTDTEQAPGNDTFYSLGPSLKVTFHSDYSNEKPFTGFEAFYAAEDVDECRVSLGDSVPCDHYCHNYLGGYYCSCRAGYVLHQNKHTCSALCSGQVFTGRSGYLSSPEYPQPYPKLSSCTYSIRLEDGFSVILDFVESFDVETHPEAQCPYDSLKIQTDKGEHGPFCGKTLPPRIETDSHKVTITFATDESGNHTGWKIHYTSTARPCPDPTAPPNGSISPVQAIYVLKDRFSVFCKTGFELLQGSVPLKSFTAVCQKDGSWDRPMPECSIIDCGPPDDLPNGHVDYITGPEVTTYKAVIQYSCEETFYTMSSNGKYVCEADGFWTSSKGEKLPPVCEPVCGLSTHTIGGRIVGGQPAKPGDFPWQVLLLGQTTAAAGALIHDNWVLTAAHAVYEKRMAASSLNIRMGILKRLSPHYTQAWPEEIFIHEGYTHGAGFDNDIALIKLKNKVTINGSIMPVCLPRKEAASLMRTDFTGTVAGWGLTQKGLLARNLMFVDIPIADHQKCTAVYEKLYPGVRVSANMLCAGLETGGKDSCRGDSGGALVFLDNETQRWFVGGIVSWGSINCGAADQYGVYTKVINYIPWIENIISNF

On to `Cc1nc(N)ccc1CNC(=O)[C@H](C)NC(=O)[C@H]1C[C@@H](c2cccc(CN)c2)CN1` [compound 1291, (2R,4S)—N—((S)-1-(((6-Amino-2-methylpyridin-3-yl)methyl)amino)-1-oxopropan-2-yl)-4-(3-(aminomethyl)phenyl)pyrrolidine-2-carboxamide Dihydrochloride], for which the Ki (commonly the equilibrium dissociation constant of an inhibitor or competing ligand from its target) on mMASP-2 is 10000 to 25000 nM.

The compound `C[C@H](NC(=O)[C@H](N)CCc1cccc(Cl)c1)C(=O)NCc1ccc(C(=N)N)cc1` [compound 1081] yielded an inhibition constant Ki on mMASP-2 below 500 nM. In addition, in the test with Lectin Pathway, the 50% inhibitory concentration (IC50) – broadly, the midpoint of a concentration-inhibition curve – was 50 to 5000 nM.

As to `Cc1nc(N)ccc1CNC(=O)[C@H](C)NC(=O)[C@H]1C[C@H](Cc2ccc(-c3cccnc3)cc2)CN1` [compound 1357, (2R,4S)—N—((S)-1-(((6-Amino-2-methylpyridin-3-yl)methyl)amino)-1-oxopropan-2-yl)-4-(4-(pyridin-3-yl)benzyl)pyrrolidine-2-carboxamide Di-trifluoracetate salt], the “MASP-2 vs. thrombin selectivity” value in the test with MASP-2 (CCP1-CCP2-SP) is on record as “**** (≥100-fold)”. Besides, in the test with Lectin Pathway (mannan-coated plate), the IC50 is below 50 nM.

For `C[C@H](NC(=O)[C@H]1C[C@H](Cc2ccc3ccccc3c2)CN1)C(=O)NCc1cc(Cl)ccc1-n1cnnn1` [compound 1385, (2R,4S)—N—((S)-1-((5-chloro-2-(1H-tetrazol-1-yl)benzyl)amino)-1-oxopropan-2-yl)-4-(naphthalen-2-ylmethyl)pyrrolidine-2-carboxamide], the “MASP-2 vs. thrombin selectivity” value with MASP-2 (CCP1-CCP2-SP) is recorded as “** (≥5.0 to <25-fold)”. This compound showed a concentration for half-maximal inhibition (IC50) with Lectin Pathway (mannan-coated plate) of 50 to 500 nM.

Consider `C[C@H](NC(=O)[C@H]1C[C@H](c2ccccc2)CN1)C(=O)NCc1ccc2c(N)nccc2c1` [compound 1090], for which, at mMASP-2, the Ki was below 500 nM.

As for `Cc1nc(N)ccc1CNC(=O)[C@H](C)NC(=O)[C@H]1C[C@H](Cc2ccc(N3CCCC3=O)cc2)CN1` [compound 1391, (2R,4S)—N—((S)-1-(((6-Amino-2-methylpyridin-3-yl)methyl)amino)-1-oxopropan-2-yl)-4-(4-(2-oxopyrrolidin-1-yl)benzyl)pyrrolidine-2-carboxamide], the “MASP-2 vs. thrombin selectivity” value in the test on MASP-2 (CCP1-CCP2-SP) is “**** (≥100-fold)”. For the same compound, in the test on Lectin Pathway (mannan-coated plate), the 50% inhibitory concentration (IC50) fell in the range of 500 to 5000 nM.

`C[C@H](NC(=O)[C@H](N)C1Cc2ccccc2C1)C(=O)NCc1ccc2nc(N)[nH]c2c1` [compound 1059]: the Ki on mMASP-2 was below 500 nM. The half-maximal inhibitory concentration (IC50) with Lectin Pathway is 50 to 5000 nM.

Turning to `COc1cc(C[C@@H]2CN[C@@H](C(=O)N[C@@H](C)C(=O)NCc3cc(Cl)ccc3-n3cnnn3)C2)cc(OC)c1` [compound 1419, (2R,4S)—N—((S)-1-((5-Chloro-2-(1H-tetrazol-1-yl)benzyl)amino)-1-oxopropan-2-yl)-4-(3,5-dimethoxybenzyl)pyrrolidine-2-carboxamide], the “MASP-2 vs. thrombin selectivity” value in the test on MASP-2 (CCP1-CCP2-SP) was “* (≥1.0 to <5.0-fold)”. The same compound had a Ki on mMASP-2 below 500 nM.

Take `C[C@H](NC(=O)[C@H]1C[C@H](Cc2ccccc2-c2ccccc2)CN1)C(=O)NCc1cnc2[nH]cc(Cl)c2c1` [compound 1393, (2R,4S)-4-([1,1′-Biphenyl]-2-ylmethyl)-N—((S)-1-(((3-chloro-1H-pyrrolo[2,3-b]pyridin-5-yl)methyl)amino)-1-oxopropan-2-yl)pyrrolidine-2-carboxamide]: the “MASP-2 vs. thrombin selectivity” value in the test on MASP-2 (CCP1-CCP2-SP) was “* (≥1.0 to <5.0-fold)”. The compound also came in with a half-maximal inhibitory concentration (IC50) in the test on Lectin Pathway (mannan-coated plate) of 50 to 500 nM.

`Cc1cc(Cl)cc(CNC(=O)[C@H](C)NC(=O)[C@H]2C[C@@H](c3ccccc3)CCN2)c1O` [compound 1365, (2R,4S)—N—((S)-1-((5-Chloro-2-hydroxy-3-methylbenzyl)amino)-1-oxopropan-2-yl)-4-phenylpiperidine-2-carboxamide]: in the test with MASP-2 (CCP1-CCP2-SP), the “MASP-2 vs. thrombin selectivity” value was “**** (≥100-fold)”. Moreover, the IC50 in the test on Lectin Pathway (mannan-coated plate) is below 50 nM.

On mMASP-2, `C[C@H](NC(=O)[C@H]1Cc2c([nH]c3ccccc23)CN1)C(=O)NCc1ccc(C(=N)N)cc1` [compound 1097] returned a Ki below 500 nM.

Compound `C[C@H](NC(=O)[C@H]1C[C@@H](c2ccccc2)CCN1)C(=O)NCc1cc(Cl)ccc1-n1cnnn1` [compound 1426, (2R,4S)—N—((S)-1-((5-Chloro-2-(1H-tetrazol-1-yl)benzyl)amino)-1-oxopropan-2-yl)-4-phenylpiperidine-2-carboxamide] registered a 50% inhibitory concentration (IC50) in the test with Lectin Pathway (mannan-coated plate) below 50 nM.

Turning to `Cc1ccc(CC[C@@H](N)C(=O)N[C@@H](C)C(=O)NCc2ccc(C(=N)N)cc2)cc1` [compound 1043], the IC50 in the test with Lectin Pathway lay within 50 to 5000 nM.

In the test with Lectin Pathway, `N=C(N)c1ccc(CNC(=O)[C@@H]2CCN2C(=O)[C@H](N)CCc2ccccc2)cc1` [compound 1038] displayed an IC50 below 500 nM.

As for `N=C(N)c1ccc(CNC(=O)[C@@H]2CCN2C(=O)[C@H](NCC(=O)O)C2CCCCC2)cc1` [compound 999, melagatran, reference compound], the IC50 with Lectin Pathway fell in the range of 500 to 50000 nM.

`C[C@H](NC(=O)[C@H](N)CCc1ccc(Cl)cc1)C(=O)NCc1ccc(C(=N)N)cc1` [compound 1080]: the IC50 in the test with Lectin Pathway lay in the range of 50 to 5000 nM.

In the test with Lectin Pathway (mannan-coated plate), `C[C@H](NC(=O)[C@H]1C[C@H](Cc2ccccc2-c2ccc(Cl)s2)CN1)C(=O)NCc1cc(Cl)ccc1-n1cnnn1` [compound 1409, (2R,4S)—N—((S)-1-((5-Chloro-2-(1H-tetrazol-1-yl)benzyl)amino)-1-oxopropan-2-yl)-4-(2-(5-chlorothiophen-2-yl)benzyl)pyrrolidine-2-carboxamide] showed an IC50 of 500 to 5000 nM.

As for `N=C(N)c1ccc(CNC(=O)[C@@H]2CCCN2C(=O)[C@H](N)C2CCCCC2)cc1` [compound 1027], the IC50 in the test with Lectin Pathway fell in the range of 50 to 5000 nM.

As to `C[C@H](NC(=O)[C@H](N)CCc1cc(Cl)cc(Cl)c1)C(=O)NCc1ccc(C(=N)N)cc1` [compound 1118], the inhibition constant Ki on mMASP-2 was below 500 nM.

`N=C(N)c1ccc(CNC(=O)[C@@H]2CCN2C(=O)[C@H]2Cc3ccccc3CN2)cc1` [compound 1034]: the IC50 with Lectin Pathway was in the range of 500 to 50000 nM.

In the case of `C[C@H](NC(=O)[C@H](N)CCc1ccccc1)C(=O)NCc1cc(Cl)ccc1-n1cnnn1` [compound 1325, (R)-2-amino-N—((S)-1-((5-chloro-2-(1H-tetrazol-1-yl)benzyl)amino)-1-oxopropan-2-yl)-4-phenylbutanamide], the inhibition constant (Ki) at mMASP-2 fell in the range of 10000 to 25000 nM.

In turn, `C[C@H](NC(=O)c1cc(-c2ccccc2)c[nH]1)C(=O)NCc1ccc(C(=N)N)cc1` [compound 1030] yielded an inhibition constant Ki at mMASP-2 below 500 nM.

For `CCCCCN[C@H](CCc1ccccc1)C(=O)N[C@@H](C)C(=O)NCc1ccc(N)nc1C` [compound 1377, (R)—N—((S)-1-(((6-Amino-2-methylpyridin-3-yl)methyl)amino)-1-oxopropan-2-yl)-2-(pentylamino)-4-phenylbutanamide], in the test with Lectin Pathway (mannan-coated plate), the IC50 was in the range of 50 to 500 nM.

As for `C[C@H](NC(=O)[C@H]1C[C@H](c2ccccc2)CN1)C(=O)NCc1ccc(/C(N)=N/O)cc1` [compound 1292], at mMASP-2, the inhibition constant (Ki) was 10000 to 25000 nM.

`C[C@@H](C(=O)NCc1ccc(C(=N)N)cc1)N(C)C(=O)[C@H](NCC(=O)O)C1CCCCC1` [compound 1107] came in with a half-maximal inhibitory concentration (IC50) in the test with Lectin Pathway of 500 to 50000 nM.

In the case of `Cc1nc(N)ccc1CNC(=O)[C@H](C)NC(=O)[C@H]1C[C@H](Cc2ccc(C3CCC3)cc2)CN1` [compound 1379, (2R,4S)—N—((S)-1-(((6-Amino-2-methylpyridin-3-yl)methyl)amino)-1-oxopropan-2-yl)-4-(4-cyclobutylbenzyl)pyrrolidine-2-carboxamide], in the test with MASP-2 (CCP1-CCP2-SP), the “MASP-2 vs. thrombin selectivity” value is on record as “**** (≥100-fold)”. The compound also registered an IC50 with Lectin Pathway (mannan-coated plate) of 500 to 5000 nM.

Consider `C[C@H](NC(=O)[C@@H](CCc1ccccc1)NCC(=O)O)C(=O)NCc1ccc(C(=N)N)cc1` [compound 1110], for which the 50% inhibitory concentration (IC50) with Lectin Pathway was below 500 nM.

Regarding `C[C@H](NC(=O)[C@H]1C[C@H](c2ccccc2)CN1)C(=O)NCc1ccc(C(=N)N)cc1` [compound 1036], the inhibition constant (Ki) at mMASP-2 was below 500 nM. The compound further registered an IC50 in the test on Lectin Pathway below 500 nM.

Take `Cc1cccc(CNC(=O)[C@H](C)NC(=O)[C@H]2C[C@H](Cc3ccccc3)CN2)c1-n1ncnn1` [compound 1437, (2R,4S)-4-Benzyl-N—((S)-1-((3-methyl-2-(2H-tetrazol-2-yl)benzyl)amino)-1-oxopropan-2-yl)pyrrolidine-2-carboxamide]: the inhibition constant (Ki) on mMASP-2 lay in the range of 2500 to 10000 nM.

In turn, `Cc1nc(N)ccc1CNC(=O)[C@H](C)NC(=O)[C@H]1C[C@H](Cc2ccccc2-c2ccccc2)CN1` [compound 1373, (2R,4S)-4-([1,1′-Biphenyl]-2-ylmethyl)-N—((S)-1-(((6-amino-2-methylpyridin-3-yl)methyl)amino)-1-oxopropan-2-yl)pyrrolidine-2-carboxamide] displayed a 50% inhibitory concentration (IC50) in the test on Lectin Pathway (mannan-coated plate) of 50 to 500 nM.

In the test on Lectin Pathway (mannan-coated plate), `C[C@H](NC(=O)[C@H]1C[C@H](c2ccccc2)CN1)C(=O)NCc1cc(Cl)cc(Cl)c1O` [compound 1395, (2R,4R)—N—((S)-1-((3,5-dichloro-2-hydroxybenzyl)amino)-1-oxopropan-2-yl)-4-phenylpyrrolidine-2-carboxamide] returned an IC50 of 5000 to 50000 nM.

`Cc1nc(N)ccc1CNC(=O)[C@H](C)NC(=O)[C@H]1C[C@H](Cc2ccccc2-c2ccc(Cl)s2)CN1` [compound 1410, (2R,4S)—N—((S)-1-(((6-Amino-2-methylpyridin-3-yl)methyl)amino)-1-oxopropan-2-yl)-4-(2-(5-chlorothiophen-2-yl)benzyl)pyrrolidine-2-carboxamide] had an IC50 in the test with Lectin Pathway (mannan-coated plate) of 500 to 5000 nM.

For the compound `Cc1nc(N)ccc1CNC(=O)[C@H](C)NC(=O)[C@@H](CCc1ccccc1)NCc1ccc(C(=O)N2CCOCC2)cc1` [compound 1381, (R)—N—((S)-1-(((6-Amino-2-methylpyridin-3-yl)methyl)amino)-1-oxopropan-2-yl)-2-((4-(morpholine-4-carbonyl)benzyl)amino)-4-phenylbutanamide], the IC50 in the test on Lectin Pathway (mannan-coated plate) was 500 to 5000 nM.

With `N=C(N)c1ccc(CNC(=O)[C@@H]2CCN2C(=O)[C@@H](CCc2ccccc2)NCC(=O)O)cc1` [compound 1124], in the test with Lectin Pathway, the IC50 was below 500 nM.
